Reference: patent publication US12077503B2, “Substituted cyclic amides and their use as herbicides” (FMC CORPORATION, priority 2015, dated 2024)

Legend:
Type in all cases: in vivo
[1] = system: blackgrass (Alopecurus myosuroides); assay: Test A postemergence; details: Postemergence
Text: (§1) Seeds of plant species selected from barnyardgrass (Echinochloa crus-galli), Kochia (Kochia scoparia), ragweed (common ragweed, Ambrosia elatior), ryegrass, Italian (Italian ryegrass, Lolium multiflorum), crabgrass, large (Digitaria sanguinalis), giant foxtail (Setaria faberii), green foxtail (Setaria viridis), morningglory (Ipomoea spp.), pigweed (Amaranthus retroflexus), velvetleaf (Abutilon theophrasti), wheat (Triticum aestivum), and corn (Zea mays) were planted into a blend of loam soil and sand and treated preemergence with a directed soil spray using test chemicals formulated in anon-phytotoxic solvent mixture which included a surfactant.
(§2) At the same time, plants selected from these crop and weed species and also blackgrass (Alopecurus myosuroides), and Galium (catchweed bedstraw, Galium aparine) were planted in pots containing the same blend of loam soil and sand and treated with postemergence applications of test chemicals formulated in the same manner. Plants ranged in height from 2 to 10 cm and were in the one- to two-leaf stage for the postemergence treatment. Treated plants and untreated controls were maintained in a greenhouse for approximately 10 d, after which time all treated plants were compared to untreated controls and visually evaluated for injury. Plant response ratings, summarized in Table A, are based on a 0 to 100 scale where 0 is no effect and 100 is complete control. A dash (-) response means no test result.

[2] = system: giant foxtail (Setaria faberii); assay: Test A postemergence; details: Postemergence
Text: as §1, §2

[3] = system: Kochia (Kochia scoparia); assay: Test A postemergence; details: Postemergence
Text: as §1, §2

[4] = system: ragweed (common ragweed, Ambrosia elatior); assay: Test A postemergence; details: Postemergence
Text: as §1, §2

[5] = system: barnyardgrass (Echinochloa crus-galli); assay: Test A postemergence; details: Postemergence
Text: as §1, §2

[6] = system: corn (Zea mays); assay: Test A postemergence; details: Postemergence
Text: as §1, §2

[7] = system: ryegrass, Italian (Italian ryegrass, Lolium multiflorum); assay: Test A postemergence; details: Postemergence
Text: as §1, §2

[8] = system: wheat (Triticum aestivum); assay: Test A postemergence; details: Postemergence
Text: as §1, §2

[9] = system: pigweed (Amaranthus retroflexus); assay: Test A postemergence; details: Postemergence
Text: as §1, §2

[10] = system: sedge, umbrella (small-flower umbrella sedge, Cyperus difformis); assay: Test B flooded paddy test; details: Flood, 250 g ai/ha; visually evaluated after 13 to 15 d
Method: (§3) Plant species in the flooded paddy test selected from rice (Oryra sativa), sedge, umbrella (small-flower umbrella sedge, Cyperus difformis), ducksalad (Heteranthera limosa), and barnyardgrass (Echinochloa crus-galli) were grown to the 2-leaf stage for testing. At time of treatment, test pots were flooded to 3 cm above the soil surface, treated by application of test compounds directly to the paddy water, and then maintained at that water depth for the duration of the test. Treated plants and controls were maintained in a greenhouse for 13 to 15 d, after which time all species were compared to controls and visually evaluated. Plant response ratings, summarized in Table B, are based on a scale of 0 to 100 where 0 is no effect and 100 is complete control. A dash (-) response means no test result.

[11] = system: barnyardgrass (Echinochloa crus-galli); assay: Test B flooded paddy test; details: Flood, 250 g ai/ha; visually evaluated after 13 to 15 d
Method: as §3

[12] = system: ducksalad (Heteranthera limosa); assay: Test B flooded paddy test; details: Flood, 250 g ai/ha; visually evaluated after 13 to 15 d
Method: as §3

[13] = system: rice (Oryra sativa); assay: Test B flooded paddy test; details: Flood, 250 g ai/ha; visually evaluated after 13 to 15 d
Method: as §3

[14] = system: giant foxtail (Setaria faberii); assay: Test A preemergence; details: Preemergence
Text: as §1, §2

[15] = system: Kochia (Kochia scoparia); assay: Test A preemergence; details: Preemergence
Text: as §1, §2

[16] = system: ragweed (common ragweed, Ambrosia elatior); assay: Test A preemergence; details: Preemergence
Text: as §1, §2

[17] = system: barnyardgrass (Echinochloa crus-galli); assay: Test A preemergence; details: Preemergence
Text: as §1, §2

[18] = system: ryegrass, Italian (Italian ryegrass, Lolium multiflorum); assay: Test A preemergence; details: Preemergence
Text: as §1, §2

[19] = system: pigweed (Amaranthus retroflexus); assay: Test A preemergence; details: Preemergence
Text: as §1, §2

[20] = system: velvetleaf (Abutilon theophrasti); assay: Test G Post-Emergence Protocol; details: Abutilon theophrasti, post-emergence, 312 h, read-out: Velvetleaf damage rating
Method: (§4) Seeds of corn (Zea mays), giant foxtail (Setaria faberi), barnyardgrass (Echinochloa crus-galli), ivy-leaved morning glory (Ipomoea hederacea), redroot pigweed (Amaranthus retroflexus) and velvetleaf (Abutilon theophrasti) were sown in standard soil in pots. After cultivation for 8 days under controlled conditions in a glasshouse (at 24/16° C., day/night; 14 hours light; 65% humidity), the plants were sprayed with an aqueous spray solution derived from the formulation of the technical active ingredient in acetone/water (50:50) solution containing 0.5% Tween 20 (polyoxyethylene sorbitan monolaurate, CAS RN 9005-64-5) to give a final dose of 15.625, 62.5 or 250 g/ha of test compound.
(§5) The test plants were then grown on under controlled conditions in a glasshouse (at 24/16° C., day/night; 14 hours light; 65% humidity) and watered twice daily. After 13 days the test was evaluated (100=total damage to plant; 0=no damage to plant). A dash (-) means no test result.

[21] = system: barnyardgrass (Echinochloa crus-galli); assay: Test G Post-Emergence Protocol; details: Echinochloa crus-galli, post-emergence, 312 h, read-out: Barnyardgrass damage rating
Method: as §4, §5

[22] = system: corn (Zea mays); assay: Test G Post-Emergence Protocol; details: Zea mays, post-emergence, 312 h, read-out: Corn damage rating
Method: as §4, §5

[23] = system: giant foxtail (Setaria faberi); assay: Test G Post-Emergence Protocol; details: Setaria faberi, post-emergence, 312 h, read-out: Foxtail, Giant damage rating
Method: as §4, §5

[24] = system: redroot pigweed (Amaranthus retroflexus); assay: Test G Post-Emergence Protocol; details: Amaranthus retroflexus, post-emergence, 312 h, read-out: Pigweed, Redroot damage rating
Method: as §4, §5

[25] = system: ivy-leaved morning glory (Ipomoea hederacea); assay: Test G Post-Emergence Protocol; details: Ipomoea, post-emergence, 312 h, read-out: Morningglory, Ivy-leaved damage rating
Method: as §4, §5

[26] = system: velvetleaf (Abutilon theophrasti); assay: Test G Pre-Emergence Protocol; details: Abutilon theophrasti, pre-emergence, 312 h, evaluated after 13 days
Method: as §4, with “one day” for “8 days”
as §5

[27] = system: barnyardgrass (Echinochloa crus-galli); assay: Test G Pre-Emergence Protocol; details: Echinochloa crus-galli, pre-emergence, 312 h, evaluated after 13 days
Method: as §4, with “one day” for “8 days”
as §5

[28] = system: corn (Zea mays); assay: Test G Pre-Emergence Protocol; details: Zea mays, pre-emergence, 312 h, evaluated after 13 days
Method: as §4, with “one day” for “8 days”
as §5

[29] = system: giant foxtail (Setaria faberi); assay: Test G Pre-Emergence Protocol; details: Setaria faberi, pre-emergence, 312 h, evaluated after 13 days
Method: as §4, with “one day” for “8 days”
as §5

[30] = system: redroot pigweed (Amaranthus retroflexus); assay: Test G Pre-Emergence Protocol; details: Amaranthus retroflexus, pre-emergence, 312 h, evaluated after 13 days
Method: as §4, with “one day” for “8 days”
as §5

[31] = system: ivy-leaved morning glory (Ipomoea hederacea); assay: Test G Pre-Emergence Protocol; details: Ipomoea, pre-emergence, 312 h, 15.625 g ai/ha, evaluated after 13 days, read-out: Morningglory, Ivy-leaved damage rating (100=total damage to plant; 0=no damage to plant)
Method: as §4, with “one day” for “8 days”
as §5

[32] = 125 g ai/ha, visual rating about 10 d after treatment
[33] = 31 g ai/ha, 0 is no effect, 100 is complete control
[34] = 31 g ai/ha, 0 to 100 scale where 0 is no effect and 100 is complete control
[35] = 125 g ai/ha, 0 to 100 scale (0 no effect, 100 complete control)
[36] = 15.625 g ai/ha, evaluated after 13 days (100=total damage to plant; 0=no damage to plant)
[37] = 62.5 g ai/ha, evaluated after 13 days, 100=total damage to plant, 0=no damage to plant

CN1C[C@H](c2ccc3c(c2)OC(F)(F)O3)[C@@H](C(=O)Nc2cccc([N+](=O)[O-])c2)C1=O [Compound 1353]
30: Foxtail, Giant plant response rating (0 to 100 scale) [2, 33] | Plant response rating, Pigweed [19, 35]
60: Plant response rating, Barnyardgrass (0 to 100 scale where 0 is no effect and 100 is complete control) [11] | Kochia plant response rating [15, 34]
100: Plant response rating, Foxtail, Giant [14, 35]
20: Blackgrass plant response rating (0 to 100 scale) [1, 32] | Kochia plant response rating (0 to 100 scale) [3, 32] | Pigweed plant response rating (0 to 100 scale) [9, 32] | Plant response rating, Ryegrass, Italian [18, 35]
90: Barnyardgrass plant response rating (0 to 100 scale, 0 no effect, 100 complete control) [5, 32]
40: Barnyardgrass plant response rating (0 to 100 scale) [5, 33] | Plant response rating, Ducksalad (0 to 100 scale where 0 is no effect and 100 is complete control) [12] | Ragweed plant response rating [16, 34]
70: Foxtail, Giant plant response rating (0 to 100 scale) [2, 32] | Plant response rating, Barnyardgrass [17, 35]
10: Ryegrass, Italian plant response rating [18, 34]
0: Blackgrass plant response rating (0 to 100 scale) [1, 33] | Kochia plant response rating (0 to 100 scale) [3, 33] | Ragweed plant response rating (0 to 100 scale) [4, 32] | Ragweed plant response rating (0 to 100 scale) [4, 33] | Corn plant response rating (0 to 100 scale) [6, 32] | Corn plant response rating (0 to 100 scale) [6, 33] | Ryegrass, Italian plant response rating (0 to 100 scale) [7, 32] | Ryegrass, Italian plant response rating (0 to 100 scale) [7, 33] | Wheat plant response rating (0 to 100 scale) [8, 32] | Wheat plant response rating (0 to 100 scale) [8, 33] | Pigweed plant response rating (0 to 100 scale) [9, 33] | Plant response rating, Sedge, Umbrella (0 to 100 scale where 0 is no effect and 100 is complete control) [10] | Plant response rating, Rice (0 to 100 scale where 0 is no effect and 100 is complete control) [13] | Plant response rating, Ragweed [16, 35] | Barnyardgrass plant response rating [17, 34] | Pigweed plant response rating [19, 34]
80: Foxtail, Giant plant response rating [14, 34] | Plant response rating, Kochia [15, 35]

CCOc1cc(F)cc(C2CN(C)C(=O)C2C(=O)Nc2cccc(F)c2F)c1 (stereo not drawn) [Compound 1695]
30%: plant injury at 15.625 g/ha [22, 36]
90%: pest or weed control at 62.5 g/ha ([27]; 62.5 g ai/ha, 100=total damage to plant, 0=no damage to plant, read-out: Barnyardgrass damage rating) | pest or weed control at 62.5 g/ha ([29]; 62.5 g ai/ha, 100=total damage to plant, 0=no damage to plant, read-out: Foxtail, Giant damage rating)
40%: plant injury at 62.5 g/ha ([28]; 62.5 g ai/ha, 100=total damage to plant, 0=no damage to plant, read-out: Corn damage rating)
10%: pest or weed control at 62.5 g/ha [20, 37] | pest or weed control at 15.625 g/ha [24, 36] | pest or weed control at 62.5 g/ha [24, 37] | pest or weed control at 15.625 g/ha [25, 36] | plant injury at 15.625 g/ha ([28]; 15.625 g ai/ha, read-out: Corn damage rating (100=total damage to plant; 0=no damage to plant))
50%: pest or weed control at 15.625 g/ha ([27]; 15.625 g ai/ha, read-out: Barnyardgrass damage rating (100=total damage to plant; 0=no damage to plant))
0%: pest or weed control at 15.625 g/ha [20, 36] | pest or weed control at 15.625 g/ha ([26]; 15.625 g ai/ha, read-out: Velvetleaf damage rating (100=total damage to plant; 0=no damage to plant)) | pest or weed control at 62.5 g/ha ([26]; 62.5 g ai/ha, 100=total damage to plant, 0=no damage to plant, read-out: Velvetleaf damage rating) | pest or weed control at 15.625 g/ha ([30]; 15.625 g ai/ha, read-out: Pigweed, Redroot damage rating (100=total damage to plant; 0=no damage to plant)) | pest or weed control at 62.5 g/ha ([30]; 62.5 g ai/ha, 100=total damage to plant, 0=no damage to plant, read-out: Pigweed, Redroot damage rating) | pest or weed control at 15.625 g/ha [31]
80%: pest or weed control at 15.625 g/ha [21, 36] | pest or weed control at 62.5 g/ha [21, 37] | pest or weed control at 15.625 g/ha [23, 36] | pest or weed control at 62.5 g/ha [23, 37]
70%: plant injury at 62.5 g/ha [22, 37] | pest or weed control at 15.625 g/ha ([29]; 15.625 g ai/ha, read-out: Foxtail, Giant damage rating (100=total damage to plant; 0=no damage to plant))
20%: pest or weed control at 62.5 g/ha [25, 37]
